Test results as given in ChEMBL document CHEMBL1914396, “Solid-state NMR analysis of interaction sites of curcumin and 42-residue amyloid β-protein fibrils” (Bioorg Med Chem, 2011).
Activity calls are given as the source filed them. The calls are words filed in the database; no cut-off is given here.

Key:
[1] = Binding affinity to [13C]-labelled at 17-21 positions of amyloid beta (1 to 42) fibrils by NMR spectroscopy
[2] = Binding affinity to [13C]-labelled at 17-21 positions of amyloid beta (1 to 42) fibrils after 48 hrs by 2D-DARR spectroscopy
[3] = Binding affinity to G9 of [13C]-labelled N-terminus amyloid beta (1 to 42) fibrils after 48 hrs by 2D-DARR spectroscopy
[4] = Binding affinity to A2 of [13C]-labelled N-terminus amyloid beta (1 to 42) fibrils after 48 hrs by 2D-DARR spectroscopy
[5] = Binding affinity to V12 of [13C]-labelled N-terminus amyloid beta (1 to 42) fibrils after 48 hrs by 2D-DARR spectroscopy
[6] = Binding affinity to [13C]-labelled amyloid beta (1 to 42) fibrils assessed as change in morphology of fibrillation at 50 uM after 1 hr using uranyl acetate dye by Transmission electron microscopy
[7] = Binding affinity to F4 of [13C]-labelled N-terminus amyloid beta (1 to 42) fibrils after 48 hrs by 2D-DARR spectroscopy

- Activity [1]: Active
- Activity [2]: Active
- Activity [3]: inactive
- Activity [4]: inactive
- Activity [5]: Active
- Activity [6]: inactive
- Activity [7]: inactive
Compound: COc1cc(/C=C/C(=O)CC(=O)/C=C/c2ccc(O)c(OC)c2)ccc1O
